The record followed here is US8440212B2, “Compositions for treating water systems” (Arch Chemicals, Inc., priority 2009, dated 2013).

Like-named read-outs stand apart in the source and are kept apart here.

Assay [1] relates to wild mustard algae (Miami strain). On the procedure: (§1) Efficacy of zinc ions (in the form of zinc sulfate) was evaluated using two strains of very difficult to control wild mustard algae, both isolated from a pool treated with BAQUACIL (Arch Chemicals, Norwalk, CT). All experiments were conducted in 125 ml Erlenmeyer flasks that contained 50 ml of Jaworski's medium. To increase the surface area in the flasks each flask also contained 50 6 mm glass beads. The tests flasks were illuminated using a combination incandescent and fluorescent plant grow lights with 16 hours of illumination and 8 hours of darkness. Temperature was maintained at 80° F+/−5° F. The flasks were grown without agitation or additional aeration. One ml of a pooled mid-log culture was used to used to inoculate the test flasks to an initial optical density of 95%T. This yields an initial concentration of approximately […] algae per ml. Efficacy was evaluated in the presence and absence of a sub-optimal concentration of a primary sanitizer (PHMB). Growth was measured optically at 450 nm using a 1 inch cell in a Spectronic 20. All experiments used five replicates. The results of the optical readings were arithmetically averaged. […] In FIGS. 1 and 2, PHMB concentrations were held at 4 PPM, and zinc ion concentration was varied from 0 to 3 PPM. Growth over time was measured and plotted.

Assay [2] relates to wild mustard algae (Schwab strain). The procedure:
as §1

The test system of assay [3] is Chlorella pyrenoidosa, Pleurochloris pyrenoidosa and Phormidium sp. As to conditions: FIG. 4.
Procedure: This study was conducted in test pools without bathers. The water was initially balanced and proper water balance was maintained throughout the study. Each pool was inoculated weekly with mixed bacterial, fungal and algal cultures. The algae inoculations were prepared using the methodology below.
Algal cultures were maintained in 5 liter carboys at 22° C. under fluorescent light with a 12 hour on/off cycle. Air is continuously bubbled through the medium. Stock cultures of Chlorella pyrenoidosa and Pleurochloris pyrenoidosa are maintained in Kratz & Meyers medium and Phormidium sp., a filamentous blue-green alga, is maintained in BG-11.
150 milliliters of a combined inoculum containing equal amounts of each strain is added weekly per 10,000 gallons of water. Typically the cultures contain approximately 2×10^7 cells per milliliter; therefore approximately 2×10^9 cells are added per pool each week. However, if time allows, determine the actual number of algae in each sample by heamocytometry, using a Neubauer heamocytometer. Each pool was chemically treated using the procedure below.
A. Test Pool 7: Baquacil CDX +Didecyl dimethyl ammonium chloride (DDAC) • 1. […]
Observations were taken on a business daily basis and the pool was scored using the following 0-4 scale. • 0=no trace of algae • 1=trace amounts • 2=small patches • 3=large patches • 4=sides and bottom more than 25% covered by algae
Where [4] appears, read: 2 or 3 ppm zinc ions, PHMB 4 PPM.

With `O=S(=O)([O-])[O-].[Zn+2]` [zinc sulfate], the “reduction of algal growth” value in assay [1] (setting [4]) and in assay [2] (setting [4]) was “approximately 50%” in each case. In addition, the algaestatic activity result in assay [1] (FIG. 2, PHMB held at 4 PPM, zinc ion 0 to 3 PPM, growth measured optically at 450 nm) is reported as “moderate algaestatic activity”; in assay [2] (FIG. 1, PHMB held at 4 PPM, zinc ion 0 to 3 PPM, growth measured optically at 450 nm), “moderate algaestatic activity”. Further, the “algaestatic performance (visual algae score 0-4)” value is “improved algaestatic performance” in assay [3] (Test Pool 7: Baquacil CDX + DDAC, single 4.2 ppm dosage of zinc sulfate (1.5 PPM zinc) after 102 days); “improved algaestatic performance” in assay [3] (Test Pool 8: Baquacil CDX control, 4.2 ppm dosages of zinc sulfate (1.5 PPM zinc) after 33, 40 and 61 days).
